Assay results: patent US20060182763A1, “CD8 T cell epitopes in HPV 16 E6 and E7 proteins and uses thereof” (priority 2005, published 2006)
Several values for one entry are separate records, joined by “and”; a condition that tells them apart may be missing. Equal entries are not always repeated. Entries after “also recorded” stand apart in the source; their conditions may differ. Where no end group is shown, it is not given here.

Tests used:
Type in all cases: cell-based, human
[1] = system: T cell clones; experiment: IFN-γ ELISPOT of T cell clones with peptides and autologous EBV-LCL; conditions: for ELISPOT response (spot forming units) of T cell clones: 10 μM; for ELISPOT response of 27G6 clone: subject 1, E7-specific clone; for ELISPOT response of T cell clones: subject 5 clones #1-5 and #17-5; for T cell clones positive in screening ELISPOT: 94 out of 400 clones screened; for retest of screen-positive T cell clones (ELISPOT): 1000 T cell clone cells in duplicate; for ELISPOT response (spot-forming units) of T cell clones: subject 15 clones specific for E6 26-40, peptides 10 μM
Procedure: A method described previously was used with some modifications (Larsson, M. et al., 2002). Briefly, a 96-well plate (Millititer, Millipore, Bedford, Mass.) was coated with 5μg/ml primary anti-γ-IFN monoclonal antibody (Mabtech, Stockholm, Sweden) and stored at 4° C. overnight. The plate was then washed 4 times with phosphate buffered saline (PBS) and blocked using RPMI 1640 plus 5% pooled human serum for 1 h at 37° C.
To examine the pattern of CD8 T cell epitopes (FIG. 1), 1×10^5cells of a CD8 T cell line were plated in each well. Overlapping 15-mer peptides (overlapping by the 10 central amino acids) were pooled to 10 groups (each group containing 3 peptides) and tested in duplicate (10 μM for each peptide) along with no peptide control. For screening T cell clones, 50 μl of culture media containing the T cell clones was added with 1×10^5 autologous Epstein-Barr virus-transformed B lymphoblastoid cell line (EBV-LCL) cells (data not shown). With the remaining experiments using T cell clones, 1×10^3 T cell clones were plated along with 1×10^5EBV-LCL cells to reduce the number of T cell clones necessary for analysis. All peptides were used at a concentration of 10 μM.
Autologous EBV-LCL cells were incubated with E6-vac, E7-vac or WR at the multiplicity of infection of 10 for 1 h at 37° C. prior to being plated (FIG. 2B). Phytohemagglutinin (PHA) at 10 μg/ml was added as positive control. After a 24 h incubation at 37° C., the plate was washed 4 times with PS plus 0.05% Tween-20. A total of 50 μl of secondary antibody (1 μg/ml biotin-conjugated anti-IFNγ monoclonal antibody; Mabtech) was added and the plate was incubated for 2 h at 37° C. The plate was then washed 4 times with PBS plus 0.1% Tween-20. Avidin-bound biotinylated horseradish peroxidase H (Vectastain Elite kit; Vector laboratories, Inc., Burligame, Calif.) was added […] and air-dried overnight. Spot forming units were counted using an automated ELISPOT analyzer (Cell Technology, Inc., Jessup, Md.) and were normalized to number of spot forming units per 1×10^6 cells for CD8 T cell lines. Response was considered positive when the number of spot forming units in wells with peptide pools was at least double that seen in the no peptide control wells.
To isolate T cell clones recognizing the E6 antigenic epitope from subject 15, their CD8 T cell lines were stimulated as described above for two additional 7-day cycles, so the frequency of targeted T cell clones would be above the threshold of selection (≧0.1%). The peptide-specific T cells were positively selected using the IFN-γ secretion assay enrichment kit, according to the manufacturer's instructions (Miltenyi Biotec), after stimulating cells with 10 μM each of peptides contained in the E6 16-40 (SEQ ID NO. 36) pool. Selected cells were plated at a concentration of 0.5 cells per well in the presence of a 0.5× feeder cell mixture (Yssel's media containing 1% pooled human serum, penicillin G 100 units/ml, streptomycin 100 μg/ml, 5×10^5/ml irradiated allogenic PBMC, 5×10^4/ml irradiated JY cells, 0.1 μg/ml PHA, with/without 10 u/ml rIL-4). Control wells for growth contained 1 to 1000 cells per well. On day 5, 100 μl of Yssel's media containing 20 U/ml of rIL-2 was added to each well. Growing microcultures were transferred to 24-well plates containing 1 ml of 1× feeder cell mixture per well (Yssel's media containing 1% pooled human serum, penicillin G 100 units/ml, streptomycin 100 μg/ml, 1×10^6/ml irradiated allogenic PBMC, 1×10^5/ml irradiated JY cells and 0.1 μg/ml PHA).
All peptides were used at a concentration of […] and 1×10^3 T cell clones along with 1×10^5 autologous LCL cells were plated to each well.

[2] = system: CD8 T cell line; experiment: IFN-γ ELISPOT of CD8 T cell lines with pooled overlapping 15-mer peptides; design: key to CD8 T cell response to HPV 16 E6 region: The strongest T cell response for a given subject is indicated with upper case X; x: subdominant response is indicated with lower case X; conditions: pooled 15-mer peptides, 10 μM each
[3] = system: T cell clones; experiment: ELISPOT with E6-vac/E7-vac-infected autologous EBV-LCL (naturally processed epitope)
[4] = subject 20 clones #60-20, #127-20, #138-20
[5] = subject 20, E6 16-40 region (eight clones), E6 31-55 region (four clones)

## E6 31-39: HPV16 E6 9-mer peptide, residues 31-39 (HDIILECVY; Human Papilloma Virus 16; CHAIN residues 31-39 of the E6 protein)
[1]; [4]
  ELISPOT response (spot forming units) of T cell clones: positive; also recorded: similar; also recorded: large numbers of spot forming units

## EDLLMGTL (Human Papilloma Virus 16; CHAIN residues 80-87 of the E7 protein) [E7 80-87]
[1]
  ELISPOT response of 27G6 clone: smaller response; also recorded: partial IFN-γ secretion

## E6 16-40: pool of three 15-mers: E6 16-30, E6 21-35, E6 26-40 (chain 1 PRKLPQLCTELQTTI; chain 2 QLCTELETTIHDIIL; chain 3 LQTTIHDIILECVYC; cysteine pairing not given here; also: pool of three 15-mers)
[2]; Subject 5
  CD8 T cell response to HPV 16 E6 region: X
[2]; Subject 7
  CD8 T cell response to HPV 16 E6 region: X
[2]; Subject 15
  CD8 T cell response to HPV 16 E6 region: X
[2]; Subject 20
  CD8 T cell response to HPV 16 E6 region: X
[3]; subject 7, MOI 5
  T cell clones positive with E6-vac infected autologous LCL: 20 of 20 and all twenty
[3]; subject 15, MOI 10
  T cell clones positive with E6-vac infected autologous LCL: 10 of 14 and 10 of the 14
[3]; subject 20, MOI 5
  T cell clones positive with E6-vac infected autologous LCL: all eight
[3]; subject 20, MOI 5, listed as SEQ ID NO. 36
  T cell clones positive with E6-vac infected autologous LCL: eight of eight

## E6 141-155: HPV16 E6 15-mer peptide, residues 141-155 (GRCMSCCRSSRTRRE; Human Papilloma Virus 16; CHAIN residues 141-155 of the E6 protein)
[1]; subject 5
  screen-positive T cell clones positive for the 15-mer peptide on retest: Two
[1]
  ELISPOT response of T cell clones: confirmed
[3]; subject 5 clones #1-5 and #17-5
  recognition of E6-vac infected autologous LCL / natural processing: not with E6-vac infected autologous LCL; also recorded: not the E6-vac infected ones

## LQTTIHDIILECVYC (Human Papilloma Virus 16; CHAIN residues 26-40 of the E6 protein) [E6 26-40]
[1]; subject 5
  screen-positive T cell clones positive for the 15-mer peptide on retest: none of 5
[1]; subject 7, of 10 (E6 16-40 region) or six (E6 46-70 region) clones
  screen-positive T cell clones positive for the 15-mer peptide on retest: 10 clones
[1]; subject 15
  T cell clones positive in screening ELISPOT: Thirteen
  retest of screen-positive T cell clones (ELISPOT): confirming their specificity
[1]; subject 15, listed as E6 24-60
  retest of screen-positive T cell clones (ELISPOT): confirmed
[1]; subject 15, of 14 clones positive for E6 16-40 region
  screen-positive T cell clones positive for the 15-mer peptide on retest: 10 clones
[1]
  ELISPOT response (spot-forming units) of T cell clones: similar
[1]; [5]
  screen-positive T cell clones positive for the 15-mer peptide on retest: eight

## E6 32-38: HPV16 E6 7-mer, residues 32-38 (DIILECV; Human Papilloma Virus 16; CHAIN residues 32-38 of the E6 protein)
[1]; [4]
  ELISPOT response (spot forming units) of T cell clones: Less number of spot forming units

## IHDIILEC (Human Papilloma Virus 16; CHAIN residues 30-37 of the E6 protein) [E6 30-37]
[1]; [4]
  ELISPOT response (spot forming units) of T cell clones: Less number of spot forming units

## E6 136-158: pool of overlapping 15-mers covering HPV16 E6 136-158 (RGRWTGRCMSCCRSSRYRRETQK; cysteine pairing not given here; also: pool of overlapping 15-mers)
[2]; Subject 5
  CD8 T cell response to HPV 16 E6 region: x

## E6 91-115: pool of three overlapping 15-mers covering HPV16 E6 91-115 (YGTTLEQQYNKPLCDLLIRCINCQK; cysteine pairing not given here; also: pool of overlapping 15-mers)
[2]; Subject 18
  CD8 T cell response to HPV 16 E6 region: X

## TTIHDIILEC (Human Papilloma Virus 16; CHAIN residues 28-37 of the E6 protein) [E6 28-37]
[1]
  ELISPOT response (spot-forming units) of T cell clones: similar

## E6 144-154: HPV16 E6 11-mer, residues 144-154 (MSCCRSSRTRR; Human Papilloma Virus 16; CHAIN residues 144-154 of the E6 protein)
[1]
  ELISPOT response of T cell clones: None of the 9-mers and the 11-mers was positive

## E6 30-38: HPV16 E6 9-mer peptide, residues 30-38 (IHDIILECV; Human Papilloma Virus 16; CHAIN residues 30-38 of the E6 protein)
[1]; subject 7 dominant epitope, clones #12-7, #40-7, #59-7
  ELISPOT response (spot forming units) of T cell clones: positive
[1]; [4]
  ELISPOT response (spot forming units) of T cell clones: positive; also recorded: similar; also recorded: large numbers of spot forming units

## HDIILECVYCKQQLL (Human Papilloma Virus 16; CHAIN residues 31-45 of the E6 protein) [E6 31-45]
[1]; [5]
  screen-positive T cell clones positive for the 15-mer peptide on retest: four

## E6 143-153: HPV16 E6 11-mer, residues 143-153 (CMSCCRSSRTR; Human Papilloma Virus 16; CHAIN residues 143-153 of the E6 protein)
[1]
  ELISPOT response of T cell clones: None of the 9-mers and the 11-mers was positive

## PRKLPQLCTELQTTI (Human Papilloma Virus 16; CHAIN residues 16-30 of the E6 protein) [E6 16-30]
[1]; subject 15
  T cell clones positive in screening ELISPOT: one
  retest of screen-positive T cell clones (ELISPOT): negative; also recorded: false positives

## LEDLLMGT (Human Papilloma Virus 16; CHAIN residues 79-86 of the E7 protein) [E7 79-86]
[1]
  ELISPOT response of 27G6 clone: smaller response; also recorded: did not show any activity above the background

## E6 61-85: pool of three overlapping 15-mers covering HPV16 E6 61-85 (YRDGNPYAVCDKCLKFYSKISEYRH; cysteine pairing not given here; also: pool of overlapping 15-mers)
[2]; Subject 18
  CD8 T cell response to HPV 16 E6 region: x
[2]; Subject 23
  CD8 T cell response to HPV 16 E6 region: x

## DFAFRDLCIVY (Human Papilloma Virus 16; CHAIN residues 51-61 of the E6 protein) [E6 51-61]
[1]; subject 7 subdominant epitope, clones #15-7, #41-7, #54-7, #86-7
  ELISPOT response (spot forming units) of T cell clones: more number of spot forming units

## QLCTELQTTIHDIIL (QLCTELETTIHDIIL; Human Papilloma Virus 16; CHAIN residues 21-35 of the E6 protein) [E6 21-35]
[1]; subject 15
  T cell clones positive in screening ELISPOT: three
  retest of screen-positive T cell clones (ELISPOT): negative; also recorded: false positives

## E6 142-152: HPV16 E6 11-mer, residues 142-152 (RCMSCCRSSRT; Human Papilloma Virus 16; CHAIN residues 142-152 of the E6 protein)
[1]
  ELISPOT response of T cell clones: None of the 9-mers and the 11-mers was positive

## E6 31-37: HPV16 E6 7-mer, residues 31-37 (HDIILEC; Human Papilloma Virus 16; CHAIN residues 31-37 of the E6 protein)
[1]; [4]
  ELISPOT response (spot forming units) of T cell clones: Less number of spot forming units

## AFRDLCIVY (Human Papilloma Virus 16; CHAIN residues 53-61 of the E6 protein) [E6 53-61]
[1]; subject 1 clones 2, 9 and 69
  ELISPOT response of E6-specific T cell clones: response
